The values that follow come from patent US10100056B2, “SHIP1 modulators and methods related thereto” (Aquinox Pharmaceuticals (Canada) Inc., priority 2013, dated 2018).

For the experiment, the system named is Akt phosphorylation in Molt-4 (PTEN-/SHIP1+) cells. Put plainly: Akt phosphorylation in lymphocytes (Western blot, IGF-1 stimulated). The class given is cell-based. Further details: key: +: inhibits Akt phosphorylation at 30 μM; −: no effect on Akt phosphorylation at 30 μM. Particulars: 30 μM; Molt-4 (SHIP1+) cells, IGF-1 100 ng/mL. As for the experimental part: Molt-4 (PTEN-/SHIP1+) cells are starved in serum free RPMI for overnight. In a 15 mL conical tube, 2-3 million serum starved cells (1 million cells per mL) are treated with various concentrations of test compound ([…]) for 30 min at 37° C. followed by stimulation with 100 ng/mL of IGF-1 for 1 hour at 37° C. After stimulation, cells are washed once with ice-cold DPBS and lysed with Lysis Buffer (20 mM Tris-HCl, pH 7.5, 140 mM NaCl, 1% NP-40, Complete Mini Protease Inhibitor Cocktail, 10 mM NaF, 1 mM Na3VO4, 1 mM β-glycerolphosphate) on ice for 30 min with vortexing every 10 min. Samples are then centrifuged at 13,000 rpm for 20 min, and supernatants are collected as total cell lysate samples. Protein concentration is determined using bicinchonic acid assay, and about 15 μg of total protein from each sample is loaded and separated on a 4-12% Tris-Glycine gel. After SDS-PAGE, proteins are transferred from the gel to a nitrocellulose membrane. The membrane is blocked in 5% BSA in PBS containing 0.1% Tween-20 (PBS-T) for 1 hour at room temperature before probing with primary antibodies for overnight at 4° C. The following antibodies are used: mouse anti-SHIP1 (1:500 dilution; Santa Cruz, Calif., USA), rabbit anti-phospho-Akt (Ser473) (1:1000 dilution; Cell Signaling Technologies, MA, USA), rabbit anti-Akt (1:1000; Cell Signaling Technologies, MA, USA), and rabbit anti-actin (1:2000; Cell Signaling Technologies, MA, USA). The membrane is then incubated with goat anti-rabbit or anti-mouse secondary antibodies (1:3000) for 1 hour at room temperature. Target proteins on the membrane are detected with ECL solution and exposed on a film.
Consider `CN(C)C[C@H]1C2=C(CC[C@@H]1[C@@]1(C)CC[C@H](O)C[C@@H]1CO)C(C)(C)CC2` [Cpd. No. 3, (1S,3S,4R)-4-((4R,5S)-4-((dimethylamino)methyl)-1,1-dimethyl-2,3,4,5,6,7-hexahydro-1H-inden-5-yl)-3-(hydroxymethyl)-4-methylcyclohexanol], for which the “Molt-4 (SHIP+): inhibition of Akt phosphorylation” value (“Molt-4 (SHIP+): inhibition” for short) is “+”. Turning to `C=C1CC[C@H]2[C@H](O)[C@@H]([C@@]3(C)CC[C@H](O)C[C@@H]3CCN3CCCC3)CC[C@]12C` [Cpd. No. 11, (3aR,4R,5R,7aS)-5-((1S,2S,4S)-4-hydroxy-1-methyl-2-(2-(pyrrolidin-1-yl)ethyl)cyclohexyl)-7a-methyl-1-methyleneoctahydro-1H-inden-4-ol], the “Molt-4 (SHIP+): inhibition” value was “+”. Next, `C=C1CC[C@H]2[C@H](CNC(=O)C(C)(C)C)[C@@H]([C@@]3(C)CC[C@H](O)C[C@@H]3CO)CC[C@]12C` [Cpd. No. 20, N-(((3aS,4R,5S,7aS)-5-((1R,2S,4S)-4-hydroxy-2-(hydroxymethyl)-1-methylcyclohexyl)-7a-methyl-1-methyleneoctahydro-1H-inden-4-yl)methyl)pivalamide]: “+”; `C=C1CC[C@H]2[C@H](CNC(=O)C(C)C)[C@@H]([C@@]3(C)CC[C@H](O)C[C@@H]3CO)CC[C@]12C` [Cpd. No. 21, N-(((3aS,4R,5S,7aS)-5-((1R,2S,4S)-4-hydroxy-2-(hydroxymethyl)-1-methylcyclohexyl)-7a-methyl-1-methyleneoctahydro-1H-inden-4-yl)methyl)isobutyramide]: “+”.

On to `C=C1CC[C@H]2[C@H](CNC(=O)CC)[C@@H]([C@@]3(C)CC[C@H](O)C[C@@H]3CO)CC[C@]12C` [Cpd. No. 22, N-(((3aS,4R,5S,7aS)-5-((1R,2S,4S)-4-hydroxy-2-(hydroxymethyl)-1-methylcyclohexyl)-7a-methyl-1-methyleneoctahydro-1H-inden-4-yl)methyl)propionamide], for which the “Molt-4 (SHIP+): inhibition” value is given as “+”. Regarding `C=C1CC[C@H]2[C@H](CNC(=O)CCC)[C@@H]([C@@]3(C)CC[C@H](O)C[C@@H]3CO)CC[C@]12C` [Cpd. No. 23, N-(((3aS,4R,5S,7aS)-5-((1R,2S,4S)-4-hydroxy-2-(hydroxymethyl)-1-methylcyclohexyl)-7a-methyl-1-methyleneoctahydro-1H-inden-4-yl)methyl)butyramide], the “Molt-4 (SHIP+): inhibition” value is reported as “+”. As to `C=C1CC[C@H]2[C@H](CNC(=O)CCCC)[C@@H]([C@@]3(C)CC[C@H](O)C[C@@H]3CO)CC[C@]12C` [Cpd. No. 24, N-(((3aS,4R,5S,7aS)-5-((1R,2S,4S)-4-hydroxy-2-(hydroxymethyl)-1-methylcyclohexyl)-7a-methyl-1-methyleneoctahydro-1H-inden-4-yl)methyl)pentanamide], the “Molt-4 (SHIP+): inhibition” value is “+”. Next, `C=C1CC[C@H]2[C@H](CCN)[C@@H]([C@@]3(C)CC[C@H](O)C[C@@H]3CO)CC[C@]12C` [Cpd. No. 29, (1S,3S,4R)-4-((3aS,4R,5S,7aS)-4-(2-aminoethyl)-7a-methyl-1-methyleneoctahydro-1H-inden-5-yl)-3-(hydroxymethyl)-4-methylcyclohexanol]: “+”; `C=C1CC[C@H]2[C@H](CNCc3cc(OC)cc(OC)c3)[C@@H]([C@@]3(C)CC[C@H](O)C[C@@H]3CO)CC[C@]12C` [Cpd. No. 32, (1S,3S,4R)-4-((3aS,4R,5S,7aS)-4-((3,5-dimethoxybenzylamino)methyl)-7a-methyl-1-methyleneoctahydro-1H-inden-5-yl)-3-(hydroxymethyl)-4-methylcyclohexanol]: “+”; `C=C1CC[C@H]2[C@H](CNCc3ccc4c(c3)OCO4)[C@@H]([C@@]3(C)CC[C@H](O)C[C@@H]3CO)CC[C@]12C` [Cpd. No. 34, (1S,3S,4R)-4-((3aS,4R,5S,7aS)-4-((benzo[d][1,3]dioxol-5-ylmethylamino)methyl)-7a-methyl-1-methyleneoctahydro-1H-inden-5-yl)-3-(hydroxymethyl)-4-methylcyclohexanol]: “+”.

As to `C=C1CC[C@H]2[C@H](O)[C@@H]([C@@]3(C)CC[C@H](O)C[C@@H]3CCN3CCN(C)CC3)CC[C@]12C` [Cpd. No. 48, (3aR,4R,5R,7aS)-5-((1S,2S,4S)-4-hydroxy-1-methyl-2-(2-(4-methylpiperazin-1-yl)ethyl)cyclohexyl)-7a-methyl-1-methyleneoctahydro-1H-inden-4-ol], the “Molt-4 (SHIP+): inhibition” value is on record as “+”. Next, `C=C1CC[C@H]2[C@H](O)[C@@H]([C@@]3(C)CC[C@H](O)C[C@@H]3CCn3ccnc3)CC[C@]12C` [Cpd. No. 50, (3aR,4R,5R,7aS)-5-((1S,2S,4S)-2-(2-(1H-imidazol-1-yl)ethyl)-4-hydroxy-1-methylcyclohexyl)-7a-methyl-1-methyleneoctahydro-1H-inden-4-ol]: “+”; `C=C1CC[C@H]2[C@H](O)[C@@H]([C@@]3(C)CC[C@H](O)C[C@@H]3CCOc3ccccn3)CC[C@]12C` [Cpd. No. 57, (3aR,4R,5R,7aS)-5-((1S,2S,4S)-4-hydroxy-1-methyl-2-(2-(pyridin-2-yloxy)ethyl)cyclohexyl)-7a-methyl-1-methyleneoctahydro-1H-inden-4-ol]: “+”; `C=C1CC[C@H]2[C@H](CNC(=O)c3ccco3)[C@@H]([C@@]3(C)CC[C@H](O)C[C@@H]3CO)CC[C@]12C` [Cpd. No. 81, N-(((3aS,4R,5S,7aS)-5-((1R,2S,4S)-4-hydroxy-2-(hydroxymethyl)-1-methylcyclohexyl)-7a-methyl-1-methyleneoctahydro-1H-inden-4-yl)methyl)furan-2-carboxamide]: “+”. Take `C=C1CC[C@H]2[C@H](CNC(=O)C3CC3)[C@@H]([C@@]3(C)CC[C@H](O)C[C@@H]3CO)CC[C@]12C` [Cpd. No. 82, N-(((3aS,4R,5S,7aS)-5-((1R,2S,4S)-4-hydroxy-2-(hydroxymethyl)-1-methylcyclohexyl)-7a-methyl-1-methyleneoctahydro-1H-inden-4-yl)methyl)cyclopropanecarboxamide]: the “Molt-4 (SHIP+): inhibition” value is “+”. Next, `C=C1CC[C@H]2[C@H](CNC(=O)C3CCCCC3)[C@@H]([C@@]3(C)CC[C@H](O)C[C@@H]3CO)CC[C@]12C` [Cpd. No. 83, N-(((3aS,4R,5S,7aS)-5-((1R,2S,4S)-4-hydroxy-2-(hydroxymethyl)-1-methylcyclohexyl)-7a-methyl-1-methyleneoctahydro-1H-inden-4-yl)methyl)cyclohexanecarboxamide]: “+”.

With `C=C1CC[C@H]2[C@H](CNC(=O)NCC)[C@@H]([C@@]3(C)CC[C@H](O)C[C@@H]3CO)CC[C@]12C` [Cpd. No. 84, 1-ethyl-3-(((3aS,4R,5S,7aS)-5-((1R,2S,4S)-4-hydroxy-2-(hydroxymethyl)-1-methylcyclohexyl)-7a-methyl-1-methyleneoctahydro-1H-inden-4-yl)methyl)urea], the “Molt-4 (SHIP+): inhibition” value is listed as “+”.
